The values that follow are results of earlier work, collected in patent publication US20120016021A1, “METHODS OF TREATING FRAGILE X SYNDROME, DOWN'S SYNDROME, AUTISM AND RELATED DISORDERS” (XENOPORT, INC., priority 2010, published 2012).

SMILES strings stand for the structures.

One data set deals with Fmr1 KO mice. The settings on record: low doses (1 mg/kg), audiogenically induced seizures.
For data set [1] the following is noted: animal models.
For data set [2] the following is noted: administered orally.

In the case of `NCC(CC(=O)O)c1ccc(Cl)cc1` (racemic) [baclofen, 4-amino-3-(4-chlorophenyl)butanoic acid], the seizure incidence result in the data set on Fmr1 KO mice is “significantly inhibits seizure incidence”. The “absorption following administration into the colon” value in data set [1] is recorded as “poorly absorbed”. Further, the elimination half-life in data set [2] is 3 to 4 h. Moreover, the locomotor activity entry in the data set with Fmr1^/− animals (baclofen at 3 mg/kg, Fmr1^/− animals) is “inhibits locomotor activity”. For the same compound, in the data set with Fmr1^/− animals (relative to 3 mg/kg), the “dose needed for comparable locomotor suppression in animals reared by Fmr1^+/+ mothers versus Fmr1^/− animals” value was 2 fold.

Regarding `Cc1nc2n(c(=O)c1CCN1CCC(c3noc4cc(F)ccc34)CC1)CCCC2` [risperidone], the “social isolation and communication” value in the data set with autistic children is reported as “not improved”. In the data set on autistic children (placebo-controlled), the “irritability subscale of the Aberrant Behavior Checklist and Clinical Global Impressions-Improvement” value is recorded as “significant improvement”.
